# From ChEMBL document CHEMBL4334436 (Medchemcomm, 2019)
# Columns and labels:
# [1] = target: D(2) dopamine receptor (Homo sapiens, UniProt P14416); assay: Displacement of [3H]spiperone from human dopamine D2S receptor expressed in CHO-K1 cell membrane incubated for 2 hrs by MicroBeta Trilux scintillation counting method; type: cell membranes
# [2] = target: D(3) dopamine receptor (Homo sapiens, UniProt P35462); assay: Displacement of [3H]spiperone from human dopamine D3 receptor expressed in dihydrofolate reductase deficient CHO-K1 cell membrane incubated for 2 hrs by MicroBeta Trilux scintillation counting method; type: cell membranes
# Chain of D(3) dopamine receptor (P35462 whole entry): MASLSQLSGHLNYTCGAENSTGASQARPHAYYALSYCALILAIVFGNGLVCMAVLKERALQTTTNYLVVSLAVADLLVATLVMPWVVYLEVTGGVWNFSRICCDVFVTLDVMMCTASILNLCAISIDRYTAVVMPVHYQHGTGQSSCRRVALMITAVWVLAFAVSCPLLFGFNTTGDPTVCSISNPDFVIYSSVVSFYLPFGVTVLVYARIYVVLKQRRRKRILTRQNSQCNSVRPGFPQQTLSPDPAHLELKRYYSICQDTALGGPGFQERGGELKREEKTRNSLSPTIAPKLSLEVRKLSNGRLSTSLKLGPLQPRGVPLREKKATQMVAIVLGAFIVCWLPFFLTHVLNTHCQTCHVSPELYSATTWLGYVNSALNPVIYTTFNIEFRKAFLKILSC
# Chain of D(2) dopamine receptor (P14416 whole entry): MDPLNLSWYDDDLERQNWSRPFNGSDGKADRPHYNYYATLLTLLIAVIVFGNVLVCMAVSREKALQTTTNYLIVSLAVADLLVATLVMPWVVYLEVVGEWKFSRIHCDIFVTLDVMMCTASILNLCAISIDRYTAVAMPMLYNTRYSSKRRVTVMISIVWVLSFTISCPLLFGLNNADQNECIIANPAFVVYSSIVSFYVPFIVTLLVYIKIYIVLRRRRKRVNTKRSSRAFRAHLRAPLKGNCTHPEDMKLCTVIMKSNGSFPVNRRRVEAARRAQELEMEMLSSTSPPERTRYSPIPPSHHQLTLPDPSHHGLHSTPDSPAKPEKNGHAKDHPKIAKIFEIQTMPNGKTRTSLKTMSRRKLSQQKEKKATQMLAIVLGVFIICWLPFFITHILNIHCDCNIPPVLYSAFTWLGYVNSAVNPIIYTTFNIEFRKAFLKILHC
SMILES,Ki [1] [nM],Ki [2] [nM]
Nc1nc2c(s1)CCN(CCCCN1CCN(c3ncccn3)CC1)CC2,2750,3800
O=C(c1ccccc1)N1CCN(CCN2CCc3ncsc3CC2)CC1,41700,12300
c1cnc(N2CCN(CCCCN3CCc4ncsc4CC3)CC2)nc1,2510,3090
Clc1cccc(N2CCN(CCCCN3CCc4ncsc4CC3)CC2)c1Cl,18.2,28.2
O=C(NCCCCN1CCc2ncsc2CC1)C12CC3CC(CC(C3)C1)C2,5500,447
c1nc2c(s1)CCN(CCCCN1CCc3ncsc3CC1)CC2,6310,3800

# The remaining molecules from weak to strong by Ki [1], led by results:
Ki [1] [nM],Ki [2] [nM],SMILES
178,257,COc1ccccc1N1CCN(CCCN2CCCc3ncsc3C2)CC1
151,240,COc1ccccc1N1CCN(CCN2CCc3ncsc3CC2)CC1
85.1,309,COc1ccccc1N1CCN(CCCCN2CCc3ncsc3CC2)CC1
64.6,166,COc1ccccc1N1CCN(CCCN2CCc3ncsc3CC2)CC1
22.4,25.7,Nc1nc2c(s1)CCN(CCCCN1CCN(c3cccc(Cl)c3Cl)CC1)CC2
3.24,8.51,COc1ccccc1N1CCN(CCCCOc2ccc3scnc3c2)CC1
2.82,3.02,COc1ccccc1N1CCN(CCCCOc2ccc3sc(N)nc3c2)CC1
